Source: patent US4920106A, “Acetylenic cyclic carbonates” (Merck & Co., Inc., priority 1989, dated 1990)
Values after ≈ are worked out from the molar mass of the structure shown.

How the values were obtained:
[1] = system: certain bacterial strains; settings: background statement; cited from earlier work
[2] = background statement; cited from earlier work
[3] = system: cytosolic β-ketothiolase; settings: background statement; cited from earlier work
[4] = system: certain fungal strains; settings: background statement; cited from earlier work
[5] = biological target: T1, Acetoacetyl-coenzyme A thiolase (Rattus norvegicus, UniProt Q5XI22); test: Acetoacetyl-Coenzyme A Thiolase Inhibition; type: biochemical, Sprague Dawley rats; settings: Table II; text: IC50, concentration that inhibits 50% of thiolase activity; enzyme from livers of lovastatin-treated rats; pH 7.5, room temperature, 340 nm NADH oxidation; read-out: MIC
T1 construct: prepared from the livers of Sprague Dawley rats treated in the diet for one week with 0.075% lovastatin to induce the enzyme; from tissue; host or cells: liver of lovastatin-fed Sprague Dawley rats
T1 sequence (Q5XI22 whole entry): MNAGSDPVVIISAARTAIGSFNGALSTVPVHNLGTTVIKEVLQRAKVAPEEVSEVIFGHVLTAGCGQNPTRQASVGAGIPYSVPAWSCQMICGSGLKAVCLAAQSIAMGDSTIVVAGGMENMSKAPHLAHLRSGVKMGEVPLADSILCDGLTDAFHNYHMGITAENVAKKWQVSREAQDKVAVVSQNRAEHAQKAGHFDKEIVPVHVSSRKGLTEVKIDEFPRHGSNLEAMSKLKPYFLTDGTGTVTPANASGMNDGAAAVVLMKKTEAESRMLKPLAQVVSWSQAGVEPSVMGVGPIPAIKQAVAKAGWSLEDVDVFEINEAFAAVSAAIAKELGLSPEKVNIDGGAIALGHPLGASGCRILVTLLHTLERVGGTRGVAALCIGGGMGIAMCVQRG
Procedure: Acetoacetyl-coenzyme A thiolase was prepared from the livers of Sprague Dawley rats treated in the diet for one week with 0.075% lovastatin to induce the enzyme. Acetoacetyl-coenzyme A thiolase was purified through the DEAE-cellulose step essentially as described by Mehrabian et al., J. Biol. Chem., 261, 16249-16255 (1986), but modified slightly by carrying out the 30-50% ammonium sulfate precipitation of the enzyme and a dialysis before the DEAE-cellulose step. The 0.06M eluate described by Mehrabian et al. contained the acetoacetyl-coenzyme A thiolase. The isolate was concentrated by ammonium sulfate precipitation, dissolved in the buffer used for elution, and stored at -70° C.
Inhibition of acetoacetyl-coenzyme A thiolase was measured by coupling the formation of acetoacetyl-coenzyme A to its subsequent reduction by β-hydroxybutyryl-coenzyme A dehydrogenase to β-hydroxybutyryl-coenzyme A and monitoring the resultant oxidation of NADH with a spectrophotometer set at 340 nm. […] Reaction was measured at room temperature for a time period necessary to produce a measurable reaction rate. […]

[6] = system: Candida albicans MY 1055; test: Antifungal Assay (minimum inhibitory concentration, Candida albicans MY 1055); type: cell-based; settings: Yeast Nitrogen Base/0.5% glucose; inoculum 3-5×10^-4 CFU/ml; 37° C., 18 hours; lowest concentration that inhibits visible growth
Procedure: Antifungal activity was determined against Candida albicans MY 1055, a yeast strain maintained by Merck and Co., Rahway, New Jersey. Minimum inhibitory concentrations were determined using a starting inoculum of 3-5×10^-4 CFU/ml. The medium was Yeast Nitrogen Base/0.5% glucose. Test compounds were dissolved in a minimum amount of 50% aqueous ethanol and diluted to final concentrations with yeast medium. Samples were incubated at 37° C. for 18 hours. The minimum inhibitory concentration (MIC), reported in μg/ml, is the lowest concentration of test compound that inhibits visible growth.

| SMILES | active against certain bacterial strains [1] | instability of the compound in vivo [2] | inhibitor of cytosolic β-ketothiolase [3] | active against certain fungal strains [4] | IC50 [5] | MIC [6] |
| --- | --- | --- | --- | --- | --- | --- |
| C#CC#CC#CC(O)C1OC(=O)OC1CCCCCCC(=O)O (stereo not shown) [triyne carbonate A, 5-(1-hydroxy-2,4,6-heptatriynyl)-2-oxo-1,3-dioxolane-4-heptanoic acid] | active | relative instability | potent inhibitor | active | – | – |
| CC#CC#CC#C[C@@H](OC)[C@@H]1OC(=O)O[C@H]1CCCCCCC(=O)OC [Ex. 13, 5-(1(R)-Methoxy-2,4,6-octatriynyl)-2-oxo-4(S),5(S)-1,3-dioxolane-4-heptanoic acid, methyl ester] | – | – | – | – | 0.56 µM | 5 µg/mL (≈ 13.9 µM) |
| COC(=O)CCCCCC[C@@H]1OC(=O)O[C@H]1C(O)C#CC#CC#C[Si](C)(C)C (single isomer, unassigned) [Ex. 6] | – | – | – | – | – | 0.6 µg/mL (≈ 1.48 µM) |
